Data from patent US4738954A, “Novel N^6 -substituted-5'-oxidized adenosine analogs” (Warner-Lambert Company, priority 1985, dated 1988).

Experiments:
[1] = tested on: mean arterial blood pressure and heart rate in the conscious rat; assay: Antihypertensive evaluation (AHP3): aortic blood pressure and heart rate from conscious rats; type: in vivo
Description: ANTIHYPERTENSIVE EVALUATION (AHP3)
This test procedure is described in the following paragraphs.
A Method for the Direct Monitoring of Aortic Blood Pressure and Heart Rate from Conscious Rats
The continous monitoring of pulsatile blood pressure (BP) from unrestrained conscious rats surgically equipped with polyethylene cannulas was accomplished by means of a computer assisted data capture scheme (CADCS). The basic elements of the methodology are the cannulation procedure and the CADCS.
Rats were anesthetized with Telazol (1:1 tiletamine HCl and zolazepam HCl); 20-40 mg/kg IM and the descending aorta exposed via a midline incision. Cannulas fabricated from polyethylene tubing were inserted into the aorta via an undersized puncture hole below the renal arteries. The puncture hole was made by a 23 G disposable needle with a section of the aorta clamped off above and below the puncture site. The cannulas, consisting of a PE100 (0.86 mm ID) body and a PE50 (0.58 mm ID) tip, were attached to a trocar, inserted through the psoas muscle, and passed subcutaneously along the midline of the back and externalized between the ears. The cannulas were anchored to the psoas muscle and between the scalulae (3-0 green braided suture). The midline incision was closed in two steps (muscle first, skin second) using contiuous over-and over sutures (4-0 chronic). Each rat was then given penicillin 30,000 units subcutaneously (Penicilling G Procaine Sterile Suspension).
The rats were fitted with a harness-spring-swivel assembly designed to protect the cannula and to provide the rat relative freedom of movement. The harnesses were fabricated from nylon hook and loop tape cemented to a metal plate to which spring wires (18-8 stainless steel) were attached to brass swivels. Each polyethylene cannula was channeled through a spring and connected through a swivel to a pressure transducer (Model P23Gb; Statham Instruments; Hato Rey, Puerto Rico) and an infusion pump (Sage model 234-7; Orion Research, Cambridge, MA) by means of PE100 tubing. While on test, each rat received a continuous slow infusion of heparinized saline solution (approximately […] or 40 units of heparin per 24 hours period) to prevent clot formation. Additional "flushes" of the cannula with heparinized saline were carried out when the aortic pluse pressure (systolic minus diastolic) was less than 25 mm Hg.
The pulsatile blood pressure and heart rate of each of 32 rats was monitored every minute by means of two in-laboratory microcomputers communicating directly with a data concentrator computer. The data were first stored on the data concentrator disk and then transferred to a magnetic tape for analysis and report generation by the main research computer. […]

[2] = tested on: platelets (ADP-induced aggregation); assay: Antithrombocyte aggregation test in vitro (ATA-8), ADP-induced, whole blood; type: cell-based, human (Community Research Clinic volunteers); details: Homo sapiens, Platelet
Description: (§1) ANTITHROMBOCYTE AGGREGATION TEST-IN VITRO (ATA-8)
Blood is collected from Community Research Clinic volunteers who have not ingested aspirin or other non-steroidol antiinflammatory drugs within the preceeding two weeks and have not eaten within the nine hours before blood draw. Blood is taken in 4.5 ml portions in Vacutainer No. 6462S silicone-coated tubes or equivalent containing 0.5 ml of 3.8% trisodium citrate. Usually six or eight portions of 4.5 ml are drawn from each volunteer. […] The pooled blood is put in 50 ml polyethylene tubes and centrifuged at 80×g (ca 600 rpm) for 20 min in an International Model K centrifuge at room temperature. […]
Addition of drug solution or saline (0.02 ml) is followed in 5 min by addition of aggregating agent (ADP or collagen suspension, 0.02 ml). Extent of aggregation, using ADP stimulus, or rate of aggregation, using collagen stimulus, is determined using the Payton Scientific Dual Channel Aggregation Module, Model 300B. Appropriate concentrations of ADP or collagen are determined by an initial brief titration.
The height in millimeters of aggregation curves for control aggregations (no drug addition, saline only) are compared with the heights of curves obtained after drug addition at various appropriate concentrations. Heights after drug addition are finally expressed as "percent of control" values. […]

[3] = tested on: platelets (ADP-induced aggregation); assay: Antithrombocyte aggregation test in vitro (ATA-8), ADP-induced, platelet rich plasma; type: cell-based, human (Community Research Clinic volunteers); details: Homo sapiens
Description: as §1
Source and Preparation of Platelet Suspensions
Blood is collected from Community Research Clinic volunteers who have not ingested aspirin or other non-steroidol antiinflammatory drugs within the preceeding two weeks and have not eaten within the nine hours before blood draw. Blood is taken in 4.5 ml portions in Vacutainer No. 6462S silicone-coated tubes or equivalent containing 0.5 ml of 3.8% trisodium citrate. Usually six or eight portions of 4.5 ml are drawn from each volunteer. The blood collected from three or four volunteers is pooled prior to centrifugation. The pooled blood is put in 50 ml polyethylene tubes and centrifuged at 80×g (ca 600 rpm) for 20 min in an International Model K centrifuge at room temperature. […] The platelet count of the PRP is determined with a Coulter Thromobocounter. […]
Platelet-rich plasma adjusted to 250,000 platelets per microliter is distributed in 0.36 ml aliquots into silicone-coated cuvettes of 0.312 inch diameter. […] Extent of aggregation, using ADP stimulus, or rate of aggregation, using collagen stimulus, is determined using the Payton Scientific Dual Channel Aggregation Module, Model 300B. Appropriate concentrations of ADP or collagen are determined by an initial brief titration. […]

CCOC(=O)[C@H]1O[C@@H](n2cnc3c(NCC(c4ccccc4)c4ccccc4)ncnc32)[C@H](O)[C@@H]1O [Example 5, N6-(2,2-diphenylethyl)-5-adenosine-5'-ethylcarboxylate]
MAP (mean arterial pressure) change ([1]; 10 mg/kg, hour 5, conscious rat): 0%

CCNC(=O)[C@H]1O[C@@H](n2cnc3c(NCC(c4ccccc4)c4ccccc4)ncnc32)[C@H](O)[C@@H]1O [Example 3, N^6-(2,2-diphenylethyl)-adenosine-5'-ethylcarboxamide]
HR (heart rate) change ([1]; 1 mg/kg, hour 5, conscious rat): 0% | MAP (mean arterial pressure) change ([1]; 1 mg/kg, hour 5, conscious rat): 0%

CCNC(=O)[C@H]1O[C@@H](n2cnc3c(N[C@H](C)Cc4ccccc4)ncnc32)[C@H](O)[C@@H]1O [Example 1, (R)-N-6-[(2-phenyl-1-methyl)ethyl]-adenosine-5'-ethylcarboxamide]
IC50 [2]: 0.7 nM | IC50 [3]: 600 nM

CCOC(=O)[C@H]1O[C@@H](n2cnc3c(NC4CC5CCC4C5)ncnc32)[C@H](O)[C@@H]1O (relative stereo) [Example 8, N-6-Norbornyl-adenosine-5'ethylcarboxylate]
MAP (mean arterial pressure) change ([1]; 10 mg/kg, hour 3, conscious rat): 0%
